Assays:
Conditions in all cases: human; call rule not given here
Hepatotoxicity [1] = assay: FDA HLAED, lactate dehydrogenase (LDH) increase
Hepatotoxicity [2] = assay: FDA HLAED, serum glutamic oxaloacetic transaminase (SGOT) increase
Hepatotoxicity [3] = assay: FDA HLAED, gamma-glutamyl transferase (GGT) increase
Hepatotoxicity [4] = assay: FDA HLAED, alkaline phosphatase increase
Hepatotoxicity [5] = assay: FDA HLAED, liver enzyme composite activity
Hepatotoxicity [6] = assay: FDA HLAED, serum glutamic pyruvic transaminase (SGPT) increase

Structure (SMILES)	LDH Increase - Activity Score (Hepatotoxicity [1])	LDH Increase - Index Value (Hepatotoxicity [1])	LDH Increase - Number of Reports (Hepatotoxicity [1])	SGOT Increase - Activity Score (Hepatotoxicity [2])	SGOT Increase - Index Value (Hepatotoxicity [2])	SGOT Increase - Number of Reports (Hepatotoxicity [2])	GGT Increase - Activity Score (Hepatotoxicity [3])	GGT Increase - Index Value (Hepatotoxicity [3])	GGT Increase - Number of Reports (Hepatotoxicity [3])	Alkaline Phosphatase Increase - Activity Score (Hepatotoxicity [4])	Alkaline Phosphatase Increase - Index Value (Hepatotoxicity [4])	Alkaline Phosphatase Increase - Number of Reports (Hepatotoxicity [4])	Composite Activity - Active (Hepatotoxicity [5])	Composite Activity - Marginal (Hepatotoxicity [5])	Composite Activity - Score (Hepatotoxicity [5])	SGPT Increase - Activity Score (Hepatotoxicity [6])	SGPT Increase - Index Value (Hepatotoxicity [6])	SGPT Increase - Number of Reports (Hepatotoxicity [6])	further results
COc1cc(NCc2ccc3nc(N)nc(N)c3c2C)cc(OC)c1OC [TRIMETREXATE]	Inactive	38.8	< 4	Active	77.5	< 4	Inactive	0	< 4	Inactive	38.8	< 4	1	0	Inactive	Inactive	38.8	< 4	
CC(CN(C)C)CN1c2ccccc2CCc2ccccc21 (stereo unspecified) [TRIMIPRAMINE]	Inactive	0	< 4	Inactive	0	< 4	Inactive	0	< 4	Inactive	0	< 4	0	0	Inactive	Inactive	0	< 4	
C[C@H](CCC(=O)O)[C@H]1CC[C@H]2[C@@H]3[C@@H](O)C[C@@H]4C[C@H](O)CC[C@]4(C)[C@H]3CC[C@]12C [URSODIOL]	Inactive	4.8	< 4	Active	9.7	>= 4	Inactive	4.8	< 4	Active	14.5	>= 4	2	0	Active	Inactive	4.8	< 4	
CC(C)[C@H](N)C(=O)OCCOCn1cnc2c(=O)[nH]c(N)nc21 [VALACYCLOVIR]	Inactive	0	< 4	Inactive	No Shipping Units	< 4	Inactive	0	< 4	Inactive	No Shipping Units	< 4	0	0	Inactive	Inactive	No Shipping Units	< 4	
CC(=O)O[C@H]1C[C@@H]2CC[C@@H]3[C@H](CC[C@@]4(C)[C@H]3C[C@H]([N+]3(C)CCCCC3)[C@@H]4OC(C)=O)[C@@]2(C)C[C@@H]1N1CCCCC1.[Br-] [VECURONIUM BROMIDE]	Inactive	1	< 4	Inactive	1	< 4	Inactive	0	< 4	Inactive	0	< 4	0	0	Inactive	Inactive	1	< 4	
COc1ccc(C(CN(C)C)C2(O)CCCCC2)cc1 (stereo unspecified) [VENLAFAXINE]	Inactive	0.7	>= 4	Inactive	2.7	>= 4	Inactive	0.9	>= 4	Inactive	1.3	>= 4	0	0	Inactive	Inactive	2.3	>= 4	
CCC1=C[C@@H]2CN(C1)Cc1c([nH]c3ccccc13)[C@@](C(=O)OC)(c1cc3c(cc1OC)N(C)[C@H]1[C@@](O)(C(=O)OC)[C@H](OC(C)=O)[C@]4(CC)C=CCN5CC[C@]31[C@@H]54)C2 [VINORELBINE]	Active	4.7	>= 4	Inactive	0.9	< 4	Inactive	0.9	< 4	Inactive	2.8	< 4	1	0	Inactive	Inactive	1.9	< 4	
COc1cc(C(=O)NS(=O)(=O)c2ccccc2C)ccc1Cc1cn(C)c2ccc(NC(=O)OC3CCCC3)cc12 [ZAFIRLUKAST]	Marginally Active	3.7	>= 4	Active	10.1	>= 4	Inactive	0.5	< 4	Inactive	2.6	>= 4	2	1	Active	Active	9.5	>= 4	
Nc1ccn([C@H]2CC[C@@H](CO)O2)c(=O)n1 [ZALCITABINE]	Inactive	1.4	< 4	Active	5.7	>= 4	Inactive	1.4	< 4	Inactive	2.9	< 4				Inactive	2.9	< 4	Composite Activity - Active (Hepatotoxicity [5]; Liver): 1; Composite Activity - Marginal (Hepatotoxicity [5]; Liver): 0; Composite Activity - Score (Hepatotoxicity [5]; Liver): Inactive
Cc1cn([C@H]2C[C@H](N=[N+]=[N-])[C@@H](CO)O2)c(=O)[nH]c1=O [ZIDOVUDINE]	Active	5.7	>= 4	Active	12.7	>= 4	Inactive	0.9	< 4	Active	5.1	>= 4	4	0	Active	Active	4.8	>= 4	
CC(c1cc2ccccc2s1)N(O)C(N)=O (stereo unspecified) [ZILEUTON]	Inactive	11.9	< 4	Active	47.5	>= 4	Inactive	5.9	< 4	Active	29.7	>= 4	3	0	Active	Active	65.3	>= 4	
Cc1ccc(-c2nc3ccc(C)cn3c2CC(=O)N(C)C)cc1 [ZOLPIDEM]	Inactive	0.7	>= 4	Marginally Active	3.8	>= 4	Marginally Active	3	>= 4	Marginally Active	3	>= 4	0	4	Marginally Active	Marginally Active	3.9	>= 4	

Reference: ChEMBL document CHEMBL1697781, “Assessment of the health effects of chemicals in humans: II. Construction of an adverse effects database for QSAR modeling” (Curr Drug Discov Technol, 2004)
